The assay relates to bovine brain tubulin. Kind of assay: Microtubule pelleting assay. The format is biochemical. The note with it: 100 μM compound, microtubules 2 mg/mL, 30 min at 37° C. How it is done: A microtubule pelleting assay is used to test in vitro the direct effect of the tubulin binding compounds described herein such as the compounds listed in Tables 1, 2, and 3. […] Freshly polymerised/depolymerised bovine brain tubulin is supplemented with 34% Glycerol and 1 mM GTP and adjusted to a concentration of 4 mg/mL. Polymerization into microtubule is achieved by incubating the tubulin at 37° C. for 30 min.
To assess the effect of the compounds tested, a final concentration of 100 μM is added to the warm microtubules diluted at 2 mg/mL and after a 30 min incubation at 37° C., the reaction mixture is added on top of a glycerol cushion. After high speed centrifugation at 80,000 rpm for 15 min, the microtubule pellet fractions are separated from the supernatant fractions and analyzed by SDS-PAGE. In the presence of the 3 MDAs, the tubulin band is observed in the pellet fractions, which indicates the […] effect of these compounds. […] The test compounds generally show destabilizing effect on microtubules.

On to `CC(=O)O[C@H]1C(=O)[C@@]2(C)[C@H]([C@H](OC(=O)c3ccccc3)[C@]3(O)C[C@H](OC(=O)[C@H](O)[C@@H](NC(=O)c4ccccc4)c4ccccc4)C(C)=C1C3(C)C)[C@]1(OC(C)=O)CO[C@@H]1C[C@@H]2O` [taxol], for which the “effect on microtubules (tubulin in pellet vs supernatant fractions, SDS-PAGE)” value is given as “increases the amount of tubulin observed in the pellet fraction”.

The values are drawn from US11633393B2, “Tubulin binding compounds and therapeutic use thereof” (BeyondSpring Pharmaceuticals, Inc., priority 2017, dated 2023).
